Experimental data taken from EP0410278A1, “Renin inhibiting aminooligohydroxy-derivatives” (HOECHST AKTIENGESELLSCHAFT, priority 1989, dated 1991).

System: Rhesusaffen
Test: In vivo test in furosemide-pretreated, anaesthetised rhesus monkeys: blood pressure, heart rate, plasma renin activity
Conditions: 2 mg/kg i.d. (in 0,1 n Zitronensäure 2 mg/ml); for Änderung PRA [%]: Plasma-Renin-Aktivität
Description: Renin-Hemmer bewirken an salzverarmten Tieren eine Blutdrucksenkung. Da sich menschliches Renin von dem Renin anderer Spezies unterscheidet, werden zum in-vivo-Test von Renin-Hemmern Primaten, wie zum Beispiel Rhesus-Affen, herangezogen.
Primaten-Renin und Human-Renin sind in ihrer Sequenz weitgehend homolog. Durch i.v. Injektion von Furosemid wird eine endogene Renin-Ausschüttung angeregt. Anschließend werden die Testverbindungen verabreicht und ihre Wirkung auf Blutdruck und Herzfrequenz wird gemessen.
6 Rhesusaffen wurden an 6 aufeinanderfolgenden Tagen mit 10 mg/kg·d Furosemid oral vorbehandelt. Am 7. Tag wurden etwa 30 Minuten vor Versuchsbeginn weitere 10 mg/kg Furosemid i.v. verabreicht. Anschließend wurde die Anästhesie mit 20 mg/kg Ketamin i.m. eingeleitet und mit 40 mg/kg Pentobarbiton i.v. fortgesetzt. Ein Seitenarm der Femoralarterie wurde freipräpariert und zur Blutdruckmessung mittels eines Blutdruck-Wandlers (P 23 ID) kanuliert. Blutproben zur Bestimmung der Plasma-Renin-Aktivität wurden über eine Braunüle in der Saphena-Vene abgenommen.
Die Titelverbindung des Beispiels 2 zeigt folgendes Ergebnis: 2 mg/kg i.d. (in 0,1 n Zitronensäure 2 mg/ml)

With CC(C)(C)S(=O)(=O)CC(Cc1ccccc1)C(=O)NC(Cc1c[nH]cn1)C(=O)NC(CC1CCCCC1)C(O)C(O)C(O)C(O)CO [Beispiel 2, (2(S)-Benzyl,3-t-butylsulfonyl)propionyl-His-[(D)-Manno-Pentol]] the “Blutdruck-Änderung [%]” value (t 1 min) was -0,72%, the “Puls-Änderung [%]” value (t 1 min) was -1,16% and the “Blutdruck-Änderung [%]” value (t 3 min) was -8,21%. The “Puls-Änderung [%]” value (t 3 min) was -1,61%, the “Blutdruck-Änderung [%]” value (t 5 min) was -11,53% and the “Puls-Änderung [%]” value (t 5 min) was -2,42%. The “Blutdruck-Änderung [%]” value (t 10 min) was -11,82%, the “Puls-Änderung [%]” value (t 10 min) was -2,51% and the “Blutdruck-Änderung [%]” value (t 15 min) was -12,68%. The “Puls-Änderung [%]” value (t 15 min) was -3,49%, the “Blutdruck-Änderung [%]” value (t 20 min) was -13,48% and the “Puls-Änderung [%]” value (t 20 min) was -1,97%. The “Blutdruck-Änderung [%]” value (t 30 min) was -16,43%, the “Puls-Änderung [%]” value (t 30 min) was -1,61% and the “Blutdruck-Änderung [%]” value (t 45 min) was -12,82%. The “Puls-Änderung [%]” value (t 45 min) was “+0,09%”, the “Blutdruck-Änderung [%]” value (t 60 min) was -13,98% and the “Puls-Änderung [%]” value (t 60 min) was -0,09%. For the same molecule, the “Puls-Änderung [%]” value (t 75 min) was “+1,16%”, the “Puls-Änderung [%]” value (t 90 min) was “+3,04%” and the “Änderung PRA [%]” value (t 15 min) was -20%. For the same molecule, the “Änderung PRA [%]” value (t 30 min) was -62%, the “Änderung PRA [%]” value (t 45 min) was -53% and the “Änderung PRA [%]” value (t 60 min) was -58%. For the same molecule, the “Änderung PRA [%]” value (t 90 min) was -51% and the “Änderung PRA [%]” value (t 120 min) was -47%.
